# Results reported in ChEMBL document CHEMBL1201862, “PubChem BioAssay data set” (2004).
# Active and inactive are the calls of the source.
# What was measured:
# [1] = HEp-2 cell cytotoxicity, dose response, cytotoxicity control for RSV inhibitor project, HTS (AID 2410); type: functional; settings: human respiratory syncytial virus
# [2] = target: Heat shock protein HSP 90-alpha (Homo sapiens, UniProt P07900); type: functional, organism-based
# [3] = target: T1, Calpain-2 catalytic subunit (Sus scrofa, UniProt P43367); assay: pig calpain II inhibitor potency, dose response, biochemical, fluorogenic peptide substrate (AID 1420); type: functional
# T1 sequence (P43367 whole entry): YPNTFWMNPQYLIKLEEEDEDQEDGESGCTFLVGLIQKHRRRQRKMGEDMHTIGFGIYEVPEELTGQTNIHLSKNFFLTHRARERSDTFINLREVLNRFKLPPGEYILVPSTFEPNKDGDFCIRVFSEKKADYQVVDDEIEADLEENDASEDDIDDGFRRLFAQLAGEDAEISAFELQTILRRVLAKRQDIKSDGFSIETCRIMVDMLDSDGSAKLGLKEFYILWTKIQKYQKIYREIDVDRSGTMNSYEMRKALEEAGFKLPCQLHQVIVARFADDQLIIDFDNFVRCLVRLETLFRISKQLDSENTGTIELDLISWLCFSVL
# Vero = Vero cell cytotoxicity, cytotoxicity control for flavivirus capping enzyme inhibitors (AID 588742); type: functional; settings: Chlorocebus sabaeus
# [4] = target: T2, Probable nicotinate-nucleotide adenylyltransferase (Staphylococcus aureus (strain N315), UniProt P65502); type: functional, Staphylococcus aureus subsp. aureus N315;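 for IC50 Mean: confirmatory dose-response retesting of NadD inhibitor hits first found in an ultra-high-throughput screen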
# T2 sequence (P65502 whole entry): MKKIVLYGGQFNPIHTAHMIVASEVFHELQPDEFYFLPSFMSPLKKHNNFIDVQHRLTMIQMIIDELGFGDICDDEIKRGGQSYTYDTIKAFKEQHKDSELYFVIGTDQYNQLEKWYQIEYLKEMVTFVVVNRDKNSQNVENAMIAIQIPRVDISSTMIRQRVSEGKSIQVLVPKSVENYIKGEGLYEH
# [5] = target: T2, Probable nicotinate-nucleotide adenylyltransferase; type: functional, Staphylococcus aureus subsp. aureus N315; settings: read-out: IC50_Mean
# [6] = target: T3, Corticotropin-releasing factor receptor 2/Corticotropin-releasing factor-binding protein (Homo sapiens, UniProt P24387+Q13324); assay: Dose Response confirmation of uHTS hits for small molecule antagonists of the CRF-binding protein and CRF-R2 receptor complex.; type: functional; settings: read-out: IC50_Mean
# T3 sequence (Q13324 whole entry): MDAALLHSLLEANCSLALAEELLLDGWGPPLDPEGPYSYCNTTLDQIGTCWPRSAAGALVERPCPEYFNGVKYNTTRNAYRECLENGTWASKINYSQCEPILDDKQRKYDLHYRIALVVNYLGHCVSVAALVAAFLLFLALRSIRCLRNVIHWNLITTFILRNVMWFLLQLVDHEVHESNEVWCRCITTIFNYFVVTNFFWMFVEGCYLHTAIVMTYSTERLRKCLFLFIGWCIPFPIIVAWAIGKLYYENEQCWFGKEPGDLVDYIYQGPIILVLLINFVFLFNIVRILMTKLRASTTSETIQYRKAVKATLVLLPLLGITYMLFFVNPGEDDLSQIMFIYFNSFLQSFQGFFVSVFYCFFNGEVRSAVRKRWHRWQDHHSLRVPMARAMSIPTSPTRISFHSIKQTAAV
# T3 sequence (P24387 whole entry): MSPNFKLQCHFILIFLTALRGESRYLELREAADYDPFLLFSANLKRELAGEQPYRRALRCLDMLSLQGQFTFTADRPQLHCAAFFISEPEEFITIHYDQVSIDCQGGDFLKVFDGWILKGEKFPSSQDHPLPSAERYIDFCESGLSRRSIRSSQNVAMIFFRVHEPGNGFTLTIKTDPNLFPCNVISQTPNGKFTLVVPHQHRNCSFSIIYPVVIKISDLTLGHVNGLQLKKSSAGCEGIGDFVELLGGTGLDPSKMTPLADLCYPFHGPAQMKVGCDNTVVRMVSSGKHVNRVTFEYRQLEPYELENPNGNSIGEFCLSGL
# [7] = target: T3, Corticotropin-releasing factor receptor 2/Corticotropin-releasing factor-binding protein; assay: activators of CRF receptor 2 with binding protein – uHTS hits, confirmation (AID 602473); type: functional; settings: read-out: EC50_Mean
# [8] = CRF-BP/CRF-R2 complex antagonists, dose response, cell-based, uHTS hits, 384-well (AID 651639); type: functional, Homo sapiens; settings: read-out: IC50_Mean
# [9] = inhibitors of firefly luciferase expression or activity, dose response, H4 neuroglioma cells, luminescence (AID 1990); type: functional, cell-based
# [10] = Luminescence Cell-Based Dose Response HTS to Identify Inhibitors of 5'UTR Stem-Loop Driven Prion Protein mRNA Translation in H4 Neuroglioblastoma Cells. [Related pubchem assays: 1827 (Project Summary), 1813 (Primary HTS)]; type: functional
# [11] = target: T4, Heat shock factor protein 1 (Mus musculus, UniProt P38532); assay: inhibition of MG132-induced HSE-luciferase signal, confirmation, cell-based, NIH3T3, luminescence, dose retest (AID 2382); type: functional;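 note: NIH3T3 fibroblasts with HSF1-driven luciferase reporter stressed by proteasome inhibitor MG132; luminescence from HSF1-driven luciferase expression after 8 hours of MG132 stress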
# T4 sequence (P38532 whole entry): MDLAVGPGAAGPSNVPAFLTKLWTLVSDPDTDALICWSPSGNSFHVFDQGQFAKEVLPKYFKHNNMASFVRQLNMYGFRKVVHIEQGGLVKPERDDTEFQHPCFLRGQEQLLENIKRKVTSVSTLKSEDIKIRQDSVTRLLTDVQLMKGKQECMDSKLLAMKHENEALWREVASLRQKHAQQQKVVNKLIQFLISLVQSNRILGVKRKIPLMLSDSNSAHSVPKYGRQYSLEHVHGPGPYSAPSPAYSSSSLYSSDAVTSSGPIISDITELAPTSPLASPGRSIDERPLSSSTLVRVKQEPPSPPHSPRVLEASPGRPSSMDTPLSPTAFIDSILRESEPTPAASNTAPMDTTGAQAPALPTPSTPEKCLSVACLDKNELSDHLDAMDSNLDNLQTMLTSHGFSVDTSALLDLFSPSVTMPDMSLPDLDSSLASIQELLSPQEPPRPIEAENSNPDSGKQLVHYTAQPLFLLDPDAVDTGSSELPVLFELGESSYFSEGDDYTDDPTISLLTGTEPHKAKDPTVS
# [12] = inhibitors of SNCA 5'UTR-driven reporter translation, confirmation, H4 neuroglioma cells, luminescence (AID 1988); type: functional, cell-based
# HEK293 = assay: inhibitors of LMP1-driven NF-kB reporter, dose response, cell-based, HEK293, luciferase, cherry-pick (AID 588343); type: functional; settings: Homo sapiens
# [13] = inhibitors of Vif binding to APOBEC3G peptide, primary screen, biochemical, TR-FRET, GST-Vif 1-94, biotin-A3G peptide, dose response retest (AID 1117319); type: functional;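 note: TR-FRET signal of purified GST-Vif binding a biotinylated A3G peptide; inhibitors lower the FRET signal by blocking Vif and A3G binding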
# H9c2 = assay: cells; type: functional, cell-based; settings: Rattus norvegicus, H9c2, Myocardium;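 note: confirmatory concentration-response retest of ultra-high-throughput screening hits for modulation of myocardial damage; cell death induced by hydrogen peroxide oxidative stress; compound pretreatment for 60 min then peroxide exposure for 2 h; potency is for protecting the cells against peroxide damage rather than for killing them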
# [14] = target: T5, DNA repair protein RAD52 homolog (Homo sapiens, UniProt P43351); type: functional, biochemical
# T5 sequence (P43351 whole entry): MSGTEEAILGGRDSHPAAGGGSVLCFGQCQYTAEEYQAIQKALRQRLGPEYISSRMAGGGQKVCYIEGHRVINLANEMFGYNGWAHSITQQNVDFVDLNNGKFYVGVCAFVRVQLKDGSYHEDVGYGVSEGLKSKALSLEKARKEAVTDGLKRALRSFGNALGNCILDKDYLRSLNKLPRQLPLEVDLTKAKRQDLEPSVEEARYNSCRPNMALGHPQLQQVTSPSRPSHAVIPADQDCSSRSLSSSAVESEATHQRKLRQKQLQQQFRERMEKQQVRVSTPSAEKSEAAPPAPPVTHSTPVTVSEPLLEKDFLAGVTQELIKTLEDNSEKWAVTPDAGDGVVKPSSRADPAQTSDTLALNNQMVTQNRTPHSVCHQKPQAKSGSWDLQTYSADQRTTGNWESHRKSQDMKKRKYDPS
# [15] = target: T6, Rac GTPase-activating protein 1 (Homo sapiens, UniProt Q9H0H5); assay: MgcRacGAP GTPase-activating activity inhibitors, confirmation, biochemical, ADP Hunter fluorescence, primary and confirmatory (AID 624330); type: functional
# T6 sequence (Q9H0H5 whole entry): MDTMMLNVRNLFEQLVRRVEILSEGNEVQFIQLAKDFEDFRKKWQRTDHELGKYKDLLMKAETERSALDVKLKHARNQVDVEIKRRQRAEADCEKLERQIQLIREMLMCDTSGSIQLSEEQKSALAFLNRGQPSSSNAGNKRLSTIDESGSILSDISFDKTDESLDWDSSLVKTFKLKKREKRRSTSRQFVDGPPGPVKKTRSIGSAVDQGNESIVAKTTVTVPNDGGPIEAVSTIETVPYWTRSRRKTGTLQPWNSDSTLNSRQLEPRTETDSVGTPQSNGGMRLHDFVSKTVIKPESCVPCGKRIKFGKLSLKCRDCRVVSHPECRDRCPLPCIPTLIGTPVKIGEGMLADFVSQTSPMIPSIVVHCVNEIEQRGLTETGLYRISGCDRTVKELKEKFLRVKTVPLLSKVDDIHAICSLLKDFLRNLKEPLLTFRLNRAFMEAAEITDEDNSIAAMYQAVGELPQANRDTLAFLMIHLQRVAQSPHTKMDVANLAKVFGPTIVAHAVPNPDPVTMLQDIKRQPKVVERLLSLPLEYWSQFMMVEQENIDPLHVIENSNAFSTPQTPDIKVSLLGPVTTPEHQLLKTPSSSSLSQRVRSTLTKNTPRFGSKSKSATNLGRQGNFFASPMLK
# [16] = inhibitors of intracellular T. cruzi replication, confirmation, NIH3T3 host cells, beta-gal luminescence (AID 2044); type: functional, cell-based;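 note: intracellular parasites grown in NIH/3T3 mouse fibroblasts as host cells; luminescent beta-galactosidase reporter signal from transgenic T. cruzi replicating inside host cells; inhibitors lower the luminescence signal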
# [17] = cytotoxicity toward NIH3T3 fibroblasts, dose response, counter-screen, cell-based, ATP luminescence, mouse fibroblasts (AID 2010); type: functional;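 note: cells exposed to compound for about 90 hours before reading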
# [18] = target: Eukaryotic translation initiation factor 4E (Mus musculus, UniProt P63073); assay: eIF4E–eIF4G protein interaction inhibitors, dose response, biochemical, TR-FRET (AID 855); type: functional;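 note: potency for disrupting eIF4E binding to eIF4GI seen as loss of FRET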
# Chain of Eukaryotic translation initiation factor 4E (P63073 whole entry): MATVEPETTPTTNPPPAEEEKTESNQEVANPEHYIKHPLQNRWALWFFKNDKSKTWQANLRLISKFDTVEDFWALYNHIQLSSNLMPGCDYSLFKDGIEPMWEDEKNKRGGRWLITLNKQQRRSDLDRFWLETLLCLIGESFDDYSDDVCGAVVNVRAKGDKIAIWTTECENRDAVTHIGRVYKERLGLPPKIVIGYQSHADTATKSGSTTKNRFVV
# cells [19] = type: functional, cell-based
# [20] = target: T7, Adenosylmethionine-8-amino-7-oxononanoate aminotransferase (Mycobacterium tuberculosis, UniProt P9WQ81); assay: Mycobacterium tuberculosis BioA enzyme inhibitor Measured in Biochemical System Using Plate Reader - 2163-02_Inhibitor_Dose_CherryPick_Activity.; type: functional, Mycobacterium tuberculosis UT205
# T7 sequence (P9WQ81 whole entry): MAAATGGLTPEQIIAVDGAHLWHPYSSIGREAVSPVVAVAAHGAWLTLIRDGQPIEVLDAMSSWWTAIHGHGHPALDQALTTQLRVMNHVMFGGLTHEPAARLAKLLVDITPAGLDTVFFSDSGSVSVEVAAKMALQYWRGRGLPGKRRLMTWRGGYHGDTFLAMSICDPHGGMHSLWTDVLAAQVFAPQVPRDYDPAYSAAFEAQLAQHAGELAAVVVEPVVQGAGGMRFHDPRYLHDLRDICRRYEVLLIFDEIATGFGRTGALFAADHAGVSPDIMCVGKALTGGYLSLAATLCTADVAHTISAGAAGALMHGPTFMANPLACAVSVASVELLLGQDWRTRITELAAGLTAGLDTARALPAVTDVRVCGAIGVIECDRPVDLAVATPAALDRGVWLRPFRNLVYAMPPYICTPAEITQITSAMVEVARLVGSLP
# cells [21] = type: functional, cell-based; remark: listed apart in the source
# cells [22] = type: functional, cell-based; remark: listed apart in the source
smiles,measurement,setting,value
CCS(=O)(=O)Nc1cccc(-c2cc(-c3ccccc3)c3cc(C)ccc3n2)c1,CC50,[1],12 µM (active)
same,AC50,[2],4.3 µM (active)
CC(C)n1c(=S)[nH]c2scc(-c3cccs3)c2c1=O,IC50,[3],18.2 µM (not active)
same,CC50,Vero,> 40 µM (active)
same,IC50,[4],13.5 µM (active)
same,IC50,[5],34 µM (active)
CC(NC(=O)CC(c1ccccc1)c1cc(Cl)ccc1O)c1ccccc1 (configuration not stated),IC50,[6],13.1 µM (active)
same,EC50,[7],> 53 µM (inactive)
same,IC50,[8],> 20 µM (inactive)
Cc1nn(-c2ccccc2)c(N)c1Sc1ccc([N+](=O)[O-])cc1,IC50,[6],< 0.368 µM (active)
same,EC50,[7],> 53 µM (inactive)
same,IC50,[8],12.8 µM (active)
COc1ccc(NC(=O)CN(C)C(=O)C2=COCCO2)cc1,IC50,[6],< 0.368 µM (active)
same,EC50,[7],> 53 µM (inactive)
same,IC50,[8],> 20 µM (inactive)
CC1CCc2nc(N)c(C#N)c(-c3cccnc3)c2C1 (configuration not stated),EC50,[9],21.9 µM (active)
same,EC50,[10],7.72 µM (active)
same,EC50,[11],1.83 µM (active)
same,EC50,[12],> 120 µM (not active)
same,AC50,HEK293,9.95 µM (active)
O=C(N/C(=C/c1ccc(Cl)cc1)c1nc2ccccc2[nH]1)c1ccco1,IC50,[13],> 100 µM (active)
CN(C)CCCNc1ccc(-c2nnc(O)c3ccccc23)cc1[N+](=O)[O-],IC50,H9c2,13.9 µM (active)
same,AC50,[14],20.5 µM (active)
COC(=O)C1CCN(C2CC(=O)N(c3cc(C)cc(C)c3)C2=O)CC1 (configuration not stated),AC50,[2],7.09 µM (active)
COc1cc(C=C2C(=O)c3ccccc3C2=O)cc(OC)c1OC,IC50,[6],1.59 µM (active)
same,EC50,[7],> 53 µM (inactive)
same,IC50,[8],1.46 µM (active)
same,IC50,[15],126 µM (active)
CN1CCN(CCCNC(=O)c2ccc(/C=C3\Sc4ccccc4N(Cc4ccccc4F)C3=O)cc2)CC1,EC50,[16],0.3 µM (active)
same,EC50,[17],6.91 µM (active)
same,IC50,[18],50 µM (inactive)
same,AC50,[14],5.23 µM (active)
O=C(Nc1ncc2c(n1)CC(c1ccco1)CC2=O)c1ccccc1 (configuration not stated),EC50,cells [19],> 350 µM (not active)
same,AC50,[20],0.657 µM (active)
O=C1CC(c2ccco2)CC(=O)C1=CNc1ccc(Br)cc1 (configuration not stated),IC50,[13],> 100 µM (active)
CCC(CO)Oc1cc(NC(=O)c2cccc(F)c2)c2ncn(C(C)C)c2c1 (configuration not stated),AC50,[20],5 µM (active)
Cn1ncc2cc3c(Nc4ccc(Cl)cc4)cccc3nc21,AC50,[20],5.67 µM (active)
O=C(N[C@H]1CC[C@@H](CCn2cc(-c3cccnc3)nn2)O[C@@H]1CO)c1ccccc1F,AC50,[20],11.7 µM (active)
O=C(N[C@H](C(=O)N1CCC[C@H]1C(=O)NCCc1ccccc1Cl)c1ccccc1)c1cccs1,IC50,cells [21],> 29.9 µM (inactive)
same,EC50,cells [22],> 29.9 µM (inactive)
COc1cc2c(cc1OC)CN1CCc3cc(OC)c(OC)cc3C1C2 (configuration not stated),AC50,[14],4.49 µM (active)
O=C(O)CC/C(=N/Nc1ccc([N+](=O)[O-])cc1)C(=O)O,AC50,[2],4.79 µM (active)
